In ChEMBL document CHEMBL5126557, “Design, synthesis, and bio-evaluation of novel triterpenoid derivatives as anti-HIV-1 compounds” (Bioorg Med Chem Lett, 2022):

Assays:
[1] = system: Human immunodeficiency virus 1; experiment: Antiviral activity against HIV-1 YU2 […] infected in human TZM-bl cells assessed as reduction in viral replication; type: functional, organism-based; conditions: Human immunodeficiency virus 1, YU2[…]
[2] = system: Human immunodeficiency virus 1; experiment: Antiviral activity against HIV-1 NL4-3(X4) infected in human TZM-bl cells assessed as reduction in viral replication; type: functional, organism-based; conditions: Human immunodeficiency virus 1, NL4-3(X4)
[3] = system: Human immunodeficiency virus 1; experiment: Antiviral activity against HIV-1 89.6 infected in human TZM-bl cells assessed as reduction in viral replication; type: functional, organism-based; conditions: Human immunodeficiency virus 1, 89.6, TZM-bl
[4] = Cytotoxicity against human TZM-bl cells assessed as reduction in cell viability by CellTitre-Glo assay; type: toxicity, cell-based
[5] = Selectivity index, ratio of CC50 for human TZM-bl cells to IC50 for IC50 for antiviral activity against HIV-1 89.6 infected in human TZM-bl cells; type: toxicity, cell-based; conditions: read-out: Ratio CC50/IC50
[6] = system: Human immunodeficiency virus 1; experiment: Synergistic antiviral activity against HIV-1 89.6 infected in human TZM-bl cells assessed as compound dose reduction index at 450:1 compound and b12 antibody ratio; type: functional
[7] = system: Human immunodeficiency virus 1; experiment: Synergistic antiviral activity against HIV-1 89.6 infected in human TZM-bl cells assessed as compound dose reduction index at 45:1 compound and 2G12 antibody ratio; type: functional
[8] = system: Human immunodeficiency virus 1; experiment: Synergistic antiviral activity against HIV-1 89.6 infected in human TZM-bl cells assessed as compound dose reduction index at 45:1 compound and 2F5 antibody ratio; type: functional
[9] = system: Human immunodeficiency virus 1; experiment: Synergistic antiviral activity against HIV-1 89.6 infected in human TZM-bl cells assessed as compound dose reduction index at 45:1 compound and 4E10 antibody ratio; type: functional
[10] = system: Human immunodeficiency virus 1; experiment: Synergistic antiviral activity against HIV-1 89.6 infected in human TZM-bl cells assessed as compound dose reduction index at 45:1 compound and KD-247 antibody ratio; type: functional
[11] = system: Human immunodeficiency virus 1; experiment: Synergistic antiviral activity against HIV-1 89.6 infected in human TZM-bl cells assessed as compound dose reduction index at 45:1 compound and 447-52D antibody ratio; type: functional
[12] = system: Human immunodeficiency virus 1; experiment: Synergistic antiviral activity against HIV-1 89.6 infected in human TZM-bl cells assessed as antibody dose reduction index at 450:1 compound and b12 antibody ratio; type: functional
[13] = system: Human immunodeficiency virus 1; experiment: Synergistic antiviral activity against HIV-1 89.6 infected in human TZM-bl cells assessed as antibody dose reduction index at 45:1 compound and 2G12 antibody ratio; type: functional
[14] = system: Human immunodeficiency virus 1; experiment: Synergistic antiviral activity against HIV-1 89.6 infected in human TZM-bl cells assessed as antibody dose reduction index at 45:1 compound and 2F5 antibody ratio; type: functional
[15] = system: Human immunodeficiency virus 1; experiment: Synergistic antiviral activity against HIV-1 89.6 infected in human TZM-bl cells assessed as antibody dose reduction index at 45:1 compound and 4E10 antibody ratio; type: functional
[16] = system: Human immunodeficiency virus 1; experiment: Synergistic antiviral activity against HIV-1 89.6 infected in human TZM-bl cells assessed as antibody dose reduction index at 45:1 compound and KD-247 antibody ratio; type: functional
[17] = system: Human immunodeficiency virus 1; experiment: Synergistic antiviral activity against HIV-1 89.6 infected in human TZM-bl cells assessed as antibody dose reduction index at 45:1 compound and 447-52D antibody ratio; type: functional
[18] = system: Human immunodeficiency virus 1; experiment: Synergistic antiviral activity against HIV-1 89.6 infected in human TZM-bl cells assessed as combination index at 450:1 compound and b12 antibody ratio; type: functional
[19] = system: Human immunodeficiency virus 1; experiment: Synergistic antiviral activity against HIV-1 89.6 infected in human TZM-bl cells assessed as combination index at 45:1 compound and 2G12 antibody ratio; type: functional
[20] = system: Human immunodeficiency virus 1; experiment: Synergistic antiviral activity against HIV-1 89.6 infected in human TZM-bl cells assessed as combination index at 45:1 compound and 2F5 antibody ratio; type: functional
[21] = system: Human immunodeficiency virus 1; experiment: Synergistic antiviral activity against HIV-1 89.6 infected in human TZM-bl cells assessed as combination index at 45:1 compound and 4E10 antibody ratio; type: functional
[22] = system: Human immunodeficiency virus 1; experiment: Synergistic antiviral activity against HIV-1 89.6 infected in human TZM-bl cells assessed as combination index at 45:1 compound and KD-247 antibody ratio; type: functional
[23] = system: Human immunodeficiency virus 1; experiment: Synergistic antiviral activity against HIV-1 89.6 infected in human TZM-bl cells assessed as combination index at 45:1 compound and 447-52D antibody ratio; type: functional

Row | IC50 [1] [µM] | IC50 [2] [µM] | IC50 [3] [µM] | Structure (SMILES) | CC50 [4] [µM] | selectivity ratio [5] | other results
1 | 25 | 1.7 | 0.79 | CC(C)C[C@H](NC(=O)CCCCCCCNC(=O)[C@]12CCC(C)(C)C[C@H]1C1=CC[C@@H]3[C@@]4(C)CC[C@H](O)C(C)(C)[C@@H]4CC[C@@]3(C)[C@]1(C)CC2)[C@@H](O)CC(=O)O | 78 | 99 | Activity_index [6]: 3.2; Activity_index [7]: 4.9; Activity_index [8]: 4.3; Activity_index [9]: 2.9; Activity_index [10]: 3.3; Activity_index [11]: 3.8; Activity_index [12]: 3.6; Activity_index [13]: 3.1; Activity_index [14]: 2.7; Activity_index [15]: 5.5; Activity_index [16]: 2.9; Activity_index [17]: 3.9; CI [18]: 0.68; CI [19]: 0.59; CI [20]: 0.69; CI [21]: 0.59; CI [22]: 0.75; CI [23]: 0.59
2 | > 100 | > 100 | > 100 | CC(C)C[C@H](NC(=O)CCCCCCCNC(=O)[C@@]1(C)CC[C@]2(C)CC[C@]3(C)C(=CC(=O)[C@@H]4[C@@]5(C)CC[C@H](O)C(C)(C)[C@@H]5CC[C@]43C)[C@@H]2C1)[C@@H](O)CC(=O)O | > 300 | – | –
3 | 16 | 0.5 | 0.39 | CC(C)C[C@H](NC(=O)CCCCCCCNC(=O)[C@]12CCC(C)(C)C[C@H]1[C@H]1C(=O)C[C@@H]3[C@@]4(C)CC[C@H](O)C(C)(C)[C@@H]4CC[C@@]3(C)[C@]1(C)CC2)[C@@H](O)CC(=O)O | 128 | 328 | –
4 | 43 | 3.7 | 3.5 | CC(C)C[C@H](NC(=O)CCCCCCCNC(=O)[C@]12CC[C@@H](C)[C@H](C)[C@H]1C1=CC[C@@H]3[C@@]4(C)CC[C@H](O)C(C)(C)[C@@H]4CC[C@@]3(C)[C@]1(C)CC2)[C@@H](O)CC(=O)O | 95 | 27 | –
5 | > 100 | > 100 | > 100 | CC(C)C[C@H](NC(=O)CCCCCCCNC(=O)[C@@]1(C)CC[C@]2(C)CC[C@]3(C)C(=CC(=O)[C@@H]4[C@@]5(C)CC[C@H](O)C(C)(C)[C@@H]5CC[C@]43C)[C@@H]2C1)[C@H](O)CC(=O)O | > 300 | – | –
6 | 40 | 3.9 | 1.1 | CC(C)C[C@H](NC(=O)CCCCCCCNC(=O)[C@]12CC[C@@H](C)[C@H](C)[C@H]1C1=CC[C@@H]3[C@@]4(C)CC[C@H](O)C(C)(C)[C@@H]4CC[C@@]3(C)[C@]1(C)CC2)[C@H](O)CC(=O)O | 71 | 65 | –
7 | 42 | 3.2 | 1 | CC(C)C[C@H](NC(=O)CCCCCCCNC(=O)[C@]12CCC(C)(C)C[C@H]1C1=CC[C@@H]3[C@@]4(C)CC[C@H](O)C(C)(C)[C@@H]4CC[C@@]3(C)[C@]1(C)CC2)[C@H](O)CC(=O)O | 26 | 26 | –

Row | Structure (SMILES) | IC50 [1] [µM] | IC50 [2] [µM] | IC50 [3] [µM] | CC50 [4] [µM] | selectivity ratio [5] | other results
8 | C=C(C)[C@@H]1CC[C@]2(C(=O)NCCCCCCCC(=O)N[C@@H](CC(C)C)[C@H](O)CC(=O)O)CC[C@]3(C)[C@H](CC[C@@H]4[C@@]5(C)CC[C@H](O)C(C)(C)[C@@H]5CC[C@]43C)[C@@H]12 | 5.8 | 0.32 | 0.2 | 8.9 | 45 | –
9 | C=C(C)[C@@H]1CC[C@]2(C(=O)NCCCCCCCC(=O)N[C@@H](CC(C)C)[C@@H](O)CC(=O)O)CC[C@]3(C)[C@H](CC[C@@H]4[C@@]5(C)CC[C@H](O)C(C)(C)[C@@H]5CC[C@]43C)[C@@H]12 | 80 | 0.27 | 0.17 | 17 | 100 | –
